Assay results as given in article PMC9322565 (Chemmedchem, 2022).
Like-named read-outs stand apart in the source and are kept apart here.

Columns and labels:
[1] = system: L. major IR‐173 promastigotes; experiment: Antipromastigote assay (resazurin); format: cell-based; details: Leishmania major, read-out: Antipromastigote activity, IC50 ±SD, IR‐173
Protocol: (§1) Antipromastigote assay: The antipromastigote activity of synthesized compounds was evaluated as described previously by […] al.[47] using L. donovani 9515 (MHOM/IN/95/9515) and L. major IR-173 (MHOM/IR/-173). […] Al dri c h) […] The prom astigotes were […] 25 °C. […] Therm ofisher Scientific) in the presence of: […] com pounds for IC50 determination. […] blank. […] Em etine served as the standard cytotoxic drug. […] References […]

[2] = Basal cytotoxicity, resazurin assay; details: human
[3] = system: L. donovani 9515 promastigotes; experiment: Antipromastigote assay (resazurin); format: cell-based, Leishmania donovani; details: for IC50: Leishmania donovani, read-out: Antipromastigote activity, IC50 ±SD, 9515
Protocol: as §1

[4] = system: L. major IR‐173 amastigotes; experiment: Anti‐amastigote assay, intramacrophage (THP‐1), resazurin; format: cell-based, Leishmania major; details: for Selectivity index SI3: L. major IR‐173: IC50 THP‐1/IC50 amastigote; for Specificity index SpI1: L. major IR‐173: IC50 promastigote/IC50 amastigote; for IC50: read-out: Anti‐amastigote activity, IC50 ±SD, IR‐173; for Selectivity index SI1: L. major IR‐173: IC50 HEK‐293/IC50 amastigote
Protocol: (§2) For the anti‐amastigote assay, differentiated plates were carefully washed with PBS, followed by the addition of 200 μL of stationary phase promastigotes in RPMI 1640 medium with 2 % FBS. An MOI of 30 : 1 was used for all three Leishmania strains. […] The treated plates were incubated for 72 hours. After incubation, the plates were gently washed three times with PBS to remove any remaining extracellular parasites. The wells were then treated with 20 μL of 0.05 % sodium dodecyl sulphate in PBS for 30 seconds to lyse the host macrophages. Lysis was terminated by adding 180 μL promastigote growth medium with 10 % FBS. […] Absorbance measurements, calculations and IC50 determinations were performed as described for the antipromastigote assay (Supporting Information).

[5] = system: L. donovani 9515 amastigotes; experiment: as above; format: cell-based, Leishmania donovani; details: for Selectivity index SI4: L. donovani 9515: IC50 THP‐1/IC50 amastigote; for Specificity index SpI2: L. donovani 9515: IC50 promastigote/IC50 amastigote; for IC50: Leishmania donovani, THP-1, L. donovani 9515 intramacrophage amastigotes, read-out: Anti‐amastigote activity, IC50 ±SD, 9515; for Selectivity index SI2: L. donovani 9515: IC50 HEK‐293/IC50 amastigote; for fold selective antiparasitic action against L. donovani amastigote in the presence of mammalian cells: HEK‐293 and THP‐1; for fold higher potency than the NF antibiotics: L. donovani amastigote; for fold more specificity for donovani amastigote than AMB: comparison of SpI2 values vs. AMB 0.4
Protocol: as §2

[6] = Macrophage toxicity, resazurin assay; format: cell-based; details: human, differentiated THP‐1 macrophages, read-out: Cytotoxicity, THP‐1, IC50±SD
Protocol: Macrophage toxicity: Toxicity of the compounds on the differentiated host THP‐1 cells were also evaluated. As mentioned, duplicate plates of differentiated THP‐1 cells were prepared during the anti‐amastigote assay. These plates were incubated for 72 hours to differentiate, instead of replacing the growth medium with parasite‐containing medium after 48 hours. […] Blanks were growth medium without cells. The treated plates were incubated for 72 hours, followed by the addition of 50 μL of resazurin solution (0.01 % in PBS) to each well and 24‐hour incubation.

[7] = HEK-293 cells (ATCC CRL 1573), Cytotoxicity, HEK‐293, IC50±SD, HEK‐293 cells, resazurin
[8] = Leishmania major, THP-1, L. major IR‐173 intramacrophage amastigotes
[9] = differentiated THP-1 cells (macrophages)
[10] = L. major IR‐173 intramacrophage amastigotes

Cc1ccc(Cn2cc(CN3C(=O)CN(/N=C/c4ccc([N+](=O)[O-])o4)C3=O)nn2)cc1 [Compound 12]
IC50 [1]: 0.34 ± 0.11 µM
IC50 [2, 7]: 41.8 ± 1.21 µM

O=C1CN(/N=C/c2ccc([N+](=O)[O-])o2)C(=O)N1Cc1cn(Cc2cccc(Br)c2)nn1 [Compound 19]
IC50 [1]: 0.48 µM
IC50 [3]: 1.75 ± 0.11 µM
IC50 [2, 7]: 12.6 ± 0.46 µM

NC(=O)N/N=C/c1ccc([N+](=O)[O-])o1 [NFZ, nitrofurazone, reference compound]
IC50 [1]: 1.22 ± 0.03 µM
IC50 [3]: 1.82 ± 0.03 µM
Selectivity index SI3 [4]: > 17
Specificity index SpI1 [4]: 0.2
IC50 [4, 8]: 5.75 ± 0.75 µM
Selectivity index SI4 [5]: > 20
Specificity index SpI2 [5]: 0.4
IC50 [5]: 4.94 ± 0.61 µM
IC50 at 72 h [6, 9]: > 100 µM
IC50 [2, 7]: > 100 µM

O=C1CN(/N=C/c2ccc([N+](=O)[O-])o2)C(=O)N1Cc1cn(Cc2cccc(C(F)(F)F)c2)nn1 [Compound 20]
IC50 [1]: 0.13 ± 0.02 µM
IC50 [2, 7]: 15.8 ± 3.69 µM

C[C@@H]1[C@H](O)[C@@H](C)/C=C/C=C/C=C/C=C/C=C/C=C/C=C/[C@H](O[C@@H]2O[C@H](C)[C@@H](O)[C@H](N)[C@@H]2O)C[C@@H]2O[C@](O)(C[C@@H](O)C[C@@H](O)[C@H](O)CC[C@@H](O)C[C@@H](O)CC(=O)O[C@H]1C)C[C@H](O)[C@H]2C(=O)O [AMB, amphotericin B, reference compound]
IC50 [1]: 0.03 ± 0.01 µM
IC50 [3]: 0.02 µM
IC50 [4, 8]: 0.03 µM
IC50 [5]: 0.05 µM

CC[C@H]1CN2CCc3cc(OC)c(OC)cc3[C@@H]2C[C@@H]1C[C@H]1NCCc2cc(OC)c(OC)cc21 [EM, Emetine, reference compound]
IC50 [2, 7]: 0.01 µM

O=C1CN(/N=C/c2ccc([N+](=O)[O-])o2)C(=O)N1Cc1cn(Cc2ccc([N+](=O)[O-])cc2)nn1 [Compound 18]
IC50 [1]: 0.38 µM
IC50 [2]: 60.2 ± 2.29 µM

CCCCCCCCCCCn1cc(CN2C(=O)CN(/N=C/c3ccc([N+](=O)[O-])o3)C2=O)nn1 [Compound 8]
IC50 [1]: 1.24 ± 0.13 µM
IC50 [3]: 1.6 ± 0.08 µM
Selectivity index SI2 [5]: 5
Selectivity index SI4 [5]: > 22
Specificity index SpI2 [5]: 0.4
IC50 [5]: 4.49 µM
IC50 at 72 h [6, 9]: > 100 µM
IC50 [2, 7]: 20.3 ± 3.15 µM

O=C1CN(/N=C/c2ccc([N+](=O)[O-])o2)C(=O)N1Cc1cn(Cc2ccc(F)cc2)nn1 [Compound 17]
IC50 [1]: 1.05 ± 0.07 µM
IC50 [2, 7]: 48.4 ± 1.88 µM

CCCCCCCn1cc(CN2C(=O)CN(/N=C/c3ccc([N+](=O)[O-])o3)C2=O)nn1 [Compound 4]
IC50 [1]: 6.85 ± 0.44 µM
IC50 [3]: 0.18 ± 0.05 µM
fold selective antiparasitic action against L. donovani amastigote in the presence of mammalian cells [5]: more than 100 fold
fold higher potency than the NF antibiotics [5]: up to 30 fold
IC50 at 72 h [6, 9]: > 100 µM
IC50 [2, 7]: > 100 µM

CCCCCCCCCn1cc(CN2C(=O)CN(/N=C/c3ccc([N+](=O)[O-])o3)C2=O)nn1 [Compound 6]
IC50 [1]: 6.51 ± 1.13 µM
IC50 [3]: 4.68 ± 0.32 µM
Selectivity index SI2 [5]: 12
Specificity index SpI2 [5]: 1.3
fold more specificity for donovani amastigote than AMB [5]: 3 fold
IC50 at 72 h [6, 9]: > 100 µM
IC50 [2, 7]: 43.8 ± 4.13 µM

CCCCCCCCCCn1cc(CN2C(=O)CN(/N=C/c3ccc([N+](=O)[O-])o3)C2=O)nn1 [Compound 7]
IC50 [1]: 0.34 ± 0.02 µM
Antipromastigote activity, IC50 ±SD, 9515 [3]: inactive
Selectivity index SI1 [4]: 10
Selectivity index SI3 [4]: > 15
IC50 [4, 10]: 6.72 µM
IC50 [4, 8]: < 10 µM
Selectivity index SI2 [5]: 11
Selectivity index SI4 [5]: > 16
IC50 [5]: 6.17 ± 0.47 µM
IC50 at 72 h [6, 9]: > 100 µM
IC50 [2, 7]: 67.1 ± 5.22 µM

CCCCCCCCCCCCn1cc(CN2C(=O)CN(/N=C/c3ccc([N+](=O)[O-])o3)C2=O)nn1 [Compound 9]
IC50 [1]: 0.38 ± 0.01 µM
IC50 at 72 h [6, 9]: > 100 µM

O=C1CN(/N=C/c2ccc([N+](=O)[O-])o2)C(=O)N1Cc1cn(Cc2ccc(Br)cc2F)nn1 [Compound 16]
IC50 [1]: 0.19 ± 0.01 µM
Selectivity index SI3 [4]: 9
Specificity index SpI1 [4]: 0.5
IC50 [4, 10]: 6.42 ± 0.38 µM
IC50 [4, 8]: < 10 µM
Selectivity index SI2 [5]: 2
Selectivity index SI4 [5]: 6
IC50 [5]: 9.21 µM
IC50 at 72 h [6, 9]: 55.7 ± 1.17 µM
IC50 [2, 7]: 14.4 ± 0.84 µM

O=C1CN(/N=C/c2ccc([N+](=O)[O-])o2)C(=O)N1Cc1cn(Cc2ccccc2)nn1 [Compound 11]
IC50 [1]: 0.68 ± 0.13 µM
IC50 [2, 7]: 21 ± 3.25 µM

CCCCCCn1cc(CN2C(=O)CN(/N=C/c3ccc([N+](=O)[O-])o3)C2=O)nn1 [Compound 3]
IC50 [1]: 0.48 ± 0.02 µM
IC50 [2, 7]: 17.9 ± 1.3 µM

CC(C)(C)c1ccc(Cn2cc(CN3C(=O)CN(/N=C/c4ccc([N+](=O)[O-])o4)C3=O)nn2)cc1 [Compound 14]
IC50 [1]: 0.45 ± 0.1 µM
Antipromastigote activity, IC50 ±SD, 9515 [3]: inactive
Selectivity index SI2 [5]: 20
Selectivity index SI4 [5]: > 86
IC50 [5]: 1.16 ± 0.02 µM
IC50 at 72 h [6, 9]: > 100 µM
IC50 [2, 7]: 23.2 ± 2.77 µM

O=C1CN(/N=C/c2ccc([N+](=O)[O-])o2)C(=O)N1Cc1cn(CCc2ccc([N+](=O)[O-])cc2)nn1 [Compound 10]
IC50 [1]: 0.17 µM
IC50 at 72 h [6]: > 100 µM
IC50 [2]: 43.7 ± 3.37 µM

CCCCCn1cc(CN2C(=O)CN(/N=C/c3ccc([N+](=O)[O-])o3)C2=O)nn1 [Compound 2]
IC50 [1]: 0.09 µM
IC50 at 72 h [6, 9]: > 100 µM
IC50 [2, 7]: > 100 µM

C#CCN1C(=O)CN(/N=C/c2ccc([N+](=O)[O-])o2)C1=O [Compound 1]
IC50 [1]: 0.51 ± 0.05 µM
fold selective antiparasitic action against L. donovani amastigote in the presence of mammalian cells [5]: more than 100 fold
fold higher potency than the NF antibiotics [5]: up to 30 fold
fold more specificity for donovani amastigote than AMB [5]: 20 fold
IC50 at 72 h [6, 9]: 99.94 ± 0.09 µM

O=C1CN(/N=C/c2ccc([N+](=O)[O-])o2)C(=O)N1Cc1cn(Cc2ccc(Br)cc2)nn1 [Compound 15]
IC50 [1]: 0.5 ± 0.03 µM
IC50 [3]: 7.59 ± 0.56 µM
Selectivity index SI1 [4]: 6
Selectivity index SI3 [4]: > 19
Specificity index SpI1 [4]: 0.1
IC50 [4, 8]: 5.14 ± 0.67 µM
IC50 at 72 h [6, 9]: > 100 µM
IC50 [2, 7]: 32.7 ± 4.19 µM

O=C1OCCN1/N=C/c1ccc([N+](=O)[O-])o1 [FZD, furazolidone, reference compound]
IC50 [1]: 0.37 ± 0.02 µM
IC50 [3]: 0.57 ± 0.05 µM
IC50 [4, 8]: 2.8 ± 0.5 µM
IC50 [5]: 4.11 ± 0.78 µM

CCCCCCCCn1cc(CN2C(=O)CN(/N=C/c3ccc([N+](=O)[O-])o3)C2=O)nn1 [Compound 5]
IC50 [1]: 0.27 ± 0.02 µM
IC50 [2, 7]: 31.9 ± 3.55 µM
